The source of these data is ChEMBL document CHEMBL5465560, “Selectivity Literature for EUbOPEN Chemogenomic Library” (2024).

Experiment [1] addresses T1, Serine/threonine-protein kinase Nek3 (Homo sapiens) (UniProt P51956).
T1 sequence (whole entry): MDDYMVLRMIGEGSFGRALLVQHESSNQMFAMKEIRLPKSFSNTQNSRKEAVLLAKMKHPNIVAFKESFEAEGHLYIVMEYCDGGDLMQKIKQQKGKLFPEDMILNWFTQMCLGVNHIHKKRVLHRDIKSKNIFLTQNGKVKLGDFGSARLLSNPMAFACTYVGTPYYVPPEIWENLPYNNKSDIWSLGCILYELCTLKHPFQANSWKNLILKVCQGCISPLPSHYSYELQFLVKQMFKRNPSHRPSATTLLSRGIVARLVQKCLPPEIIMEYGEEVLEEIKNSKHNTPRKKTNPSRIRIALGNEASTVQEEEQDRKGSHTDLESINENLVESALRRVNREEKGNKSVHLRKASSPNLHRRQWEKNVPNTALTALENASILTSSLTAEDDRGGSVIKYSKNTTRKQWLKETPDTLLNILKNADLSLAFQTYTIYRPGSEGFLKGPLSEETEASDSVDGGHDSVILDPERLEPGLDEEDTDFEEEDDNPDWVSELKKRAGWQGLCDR
Conditions: at 10 µM.

Experiment [2] deals with T2, Serine/threonine-protein kinase VRK1 (Homo sapiens) (UniProt Q99986).
T2 sequence (whole entry): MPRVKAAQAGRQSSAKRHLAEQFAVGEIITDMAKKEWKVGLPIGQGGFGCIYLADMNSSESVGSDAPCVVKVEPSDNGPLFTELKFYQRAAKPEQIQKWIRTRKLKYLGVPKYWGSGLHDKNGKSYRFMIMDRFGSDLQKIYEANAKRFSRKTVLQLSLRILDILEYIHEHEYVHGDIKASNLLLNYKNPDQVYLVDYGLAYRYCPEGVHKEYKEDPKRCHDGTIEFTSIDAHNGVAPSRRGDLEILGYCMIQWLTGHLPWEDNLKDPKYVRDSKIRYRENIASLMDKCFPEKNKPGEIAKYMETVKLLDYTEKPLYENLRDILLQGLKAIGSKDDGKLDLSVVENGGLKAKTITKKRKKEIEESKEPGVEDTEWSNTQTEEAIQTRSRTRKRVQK
The experiment is described as follows: Selectivity interaction (Kinase panel (DSF assay)) EUB0001558a VRK1.

The target in experiment [3] is Serine/threonine-protein kinase pim-1 (Homo sapiens, UniProt P11309). The experiment can be described thus: Selectivity interaction (Kinase panel (literature)) EUB0001199aCl PIM1. The following applies: at 1 µM.
The target of experiment [4] is T3, Mitogen-activated protein kinase kinase kinase 2 (Homo sapiens) (UniProt Q9Y2U5).
T3 sequence (whole entry): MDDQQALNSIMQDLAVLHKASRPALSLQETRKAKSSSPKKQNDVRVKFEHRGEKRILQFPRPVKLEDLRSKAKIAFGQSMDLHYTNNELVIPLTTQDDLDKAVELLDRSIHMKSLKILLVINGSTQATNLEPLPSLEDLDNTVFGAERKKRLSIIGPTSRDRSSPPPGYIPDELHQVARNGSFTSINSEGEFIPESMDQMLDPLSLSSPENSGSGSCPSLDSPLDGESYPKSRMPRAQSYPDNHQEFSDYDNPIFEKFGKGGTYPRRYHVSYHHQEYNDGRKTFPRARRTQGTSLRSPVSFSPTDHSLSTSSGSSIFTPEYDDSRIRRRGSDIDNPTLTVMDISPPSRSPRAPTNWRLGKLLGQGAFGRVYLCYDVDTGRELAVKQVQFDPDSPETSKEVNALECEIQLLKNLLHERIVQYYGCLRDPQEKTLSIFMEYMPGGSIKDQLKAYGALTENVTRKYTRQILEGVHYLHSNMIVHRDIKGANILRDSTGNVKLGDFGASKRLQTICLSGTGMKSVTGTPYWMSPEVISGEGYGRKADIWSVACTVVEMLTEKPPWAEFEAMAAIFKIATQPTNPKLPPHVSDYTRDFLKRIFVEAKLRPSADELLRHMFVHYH
The experiment is described as follows: Selectivity interaction (ActivX KiNativ screen (kinase selectivity in THP-1 cell lysates)) EUB0000639a MAP3K2. Format: subcellular. Conditions: lysate, at 0.2 µM.

Experiment [5] has as its target T4, Cytoplasmic tyrosine-protein kinase BMX (Homo sapiens) (UniProt P51813).
T4 sequence (whole entry): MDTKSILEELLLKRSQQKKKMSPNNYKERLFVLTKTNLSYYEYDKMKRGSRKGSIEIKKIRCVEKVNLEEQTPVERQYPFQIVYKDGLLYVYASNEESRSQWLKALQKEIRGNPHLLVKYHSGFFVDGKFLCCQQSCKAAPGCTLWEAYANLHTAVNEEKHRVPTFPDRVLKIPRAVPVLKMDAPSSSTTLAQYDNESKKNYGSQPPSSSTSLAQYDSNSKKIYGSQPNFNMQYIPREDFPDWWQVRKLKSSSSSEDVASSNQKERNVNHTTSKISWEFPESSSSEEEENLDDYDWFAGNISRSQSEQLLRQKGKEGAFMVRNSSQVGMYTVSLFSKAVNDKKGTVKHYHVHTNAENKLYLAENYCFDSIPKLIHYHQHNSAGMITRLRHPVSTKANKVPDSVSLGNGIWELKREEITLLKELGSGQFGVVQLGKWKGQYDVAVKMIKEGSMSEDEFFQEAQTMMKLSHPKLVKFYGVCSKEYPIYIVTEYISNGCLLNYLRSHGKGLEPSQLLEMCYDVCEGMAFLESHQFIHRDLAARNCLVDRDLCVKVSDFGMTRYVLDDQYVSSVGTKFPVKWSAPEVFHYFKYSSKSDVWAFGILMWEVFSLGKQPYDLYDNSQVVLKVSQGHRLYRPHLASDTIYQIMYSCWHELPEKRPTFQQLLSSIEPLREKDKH
The experiment can be described thus: Selectivity interaction (Millipore kinase profiler) EUB0000124b BMX. Conditions: at 10 µM.

The target of experiment [6] is Serine/threonine-protein kinase Nek7 (Homo sapiens) (UniProt Q8TDX7). The experiment is described as follows: Selectivity interaction (KinomeScan (DiscoverX)) EUB0000092b NEK7. The following applies: at 10 µM.
Sequence of Serine/threonine-protein kinase Nek7 (Homo sapiens) (Q8TDX7 whole entry, looked up): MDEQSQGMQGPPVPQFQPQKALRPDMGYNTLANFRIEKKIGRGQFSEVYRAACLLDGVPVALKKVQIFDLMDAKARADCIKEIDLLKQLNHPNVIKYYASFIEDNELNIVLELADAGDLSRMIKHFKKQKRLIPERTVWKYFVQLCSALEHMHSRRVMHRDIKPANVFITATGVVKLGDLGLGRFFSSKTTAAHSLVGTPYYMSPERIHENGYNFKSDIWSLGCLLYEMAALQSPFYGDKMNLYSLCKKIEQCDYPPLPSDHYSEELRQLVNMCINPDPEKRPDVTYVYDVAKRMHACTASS

Sequence of Serine/threonine-protein kinase pim-1 (P11309 whole entry, looked up): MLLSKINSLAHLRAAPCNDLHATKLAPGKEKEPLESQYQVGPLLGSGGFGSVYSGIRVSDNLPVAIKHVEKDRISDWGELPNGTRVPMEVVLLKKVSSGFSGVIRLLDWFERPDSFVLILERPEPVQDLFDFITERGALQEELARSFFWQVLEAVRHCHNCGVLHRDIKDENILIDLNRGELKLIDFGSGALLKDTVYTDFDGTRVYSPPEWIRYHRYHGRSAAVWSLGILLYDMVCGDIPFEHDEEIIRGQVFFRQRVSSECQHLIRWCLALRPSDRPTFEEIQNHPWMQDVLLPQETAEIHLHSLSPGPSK

In turn, `Cc1cc([C@@H](C)Nc2ccccc2C(=O)O)c2nc(N3CCOCC3)cc(=O)n2c1` [AZD-6482] had a % of control in experiment [1] of 100%.

As for `CC(C)(O)[C@H](F)CN1Cc2cc(NC(=O)c3cnn4cccnc34)c(N3CCOCC3)cc2C1=O`, in experiment [2], the dTM was -0.3 K.

For `CN1Cc2nccc(-c3cn(C)nc3-c3ccc(F)cc3)c2C1=O`, the % of inhibition in experiment [3] was 4%.

For the compound `CC[C@@H]1[C@H](F)C(=O)N[C@@H]1COc1nccc2cc(C(N)=O)c(OC)cc12` [ZIMLOVISERTIB], the % of inhibition in experiment [4] is -1.4%.

In turn, `CC(=O)Nc1cccc(-n2c(=O)n(C3CC3)c(=O)c3c(Nc4ccc(I)cc4F)n(C)c(=O)c(C)c32)c1` showed a % of control in experiment [5] of 93%.

Compound `CCC(=O)N1CCN(c2ccc(-n3c(=O)ccc4cnc5ccc(-c6cnc7ccccc7c6)cc5c43)cc2C(F)(F)F)CC1` registered a % of control in experiment [6] of 90%.
